Reference: US6358699B1, “Assay for asymmetrical NG, NG dimethyl-l-arginine” (Cooke Pharma, priority 1999, dated 2002)

Target: DDAH (Rattus norvegicus, UniProt O08557)
Experiment: DDAH activity toward ADMA versus SDMA
Assay type: biochemical
Settings: ADMA versus SDMA as substrate
Description: DDAH, however, has at least 1000-fold higher activity toward ADMA than SDMA, and is therefore uniquely suited for use in an enzymatic assay for unequivocal measurement of ADMA in complex mixtures. Nevertheless an enzymatic ADMA assay using DDAH is problematical because of a number of interfering components in blood. Importantly, citrulline is present in blood, so that it would provide a large background which would substantially diminish the accuracy of an assay where citrulline is the final product which is determined as a measure of the amount of ADMA in the sample. In addition, urea which is also present in blood cross-reacts in the citrulline assay. Finally, porphyrins in blood interfere with the spectrophotometric determination of citrulline. In order to have an enzymatic assay using DDAH, it is essential to prevent these various blood components from interfering with the assay.

Chain of DDAH (O08557 whole entry): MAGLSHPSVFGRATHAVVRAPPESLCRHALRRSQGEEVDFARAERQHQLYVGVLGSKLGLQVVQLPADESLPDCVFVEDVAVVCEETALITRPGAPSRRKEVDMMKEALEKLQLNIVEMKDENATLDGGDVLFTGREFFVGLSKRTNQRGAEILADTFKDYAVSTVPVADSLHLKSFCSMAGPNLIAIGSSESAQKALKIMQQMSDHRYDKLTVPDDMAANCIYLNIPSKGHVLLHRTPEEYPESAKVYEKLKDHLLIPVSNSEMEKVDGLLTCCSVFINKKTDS

In the case of CN(C)C(N)=NCCC[C@H](N)C(=O)O [ADMA, asymmetric dimethylarginine], the “DDAH activity toward ADMA relative to SDMA” value is reported as “at least 1000 fold”.
